The results in this text go back to patent publication US8435393B2, “Instrument and system for pharmacologic measurement and well vessel used therein” (Panasonic Corporation, priority 2003, dated 2013).

The subject of test [1] is carbachol (CCh) sensitive ion channel. Description: Intracellular potential response of an HEK cell by the patch clamp method (Comparative Example 2). The format is cell-based, human. Conditions: HEK-293 cell expressing CCh sensitive ion channel; CCh 100 μM; in 6 sec after CCh is dropped; glass patch pipette. The procedure: (§1) The solution holding section 17 was filled with a culture fluid and 8000 HEK cells are seeded in the holding section in dispersion. The culture fluid used was HEPES buffer DMEM+10 wt % FBS. A cell was sucked from the back surface to be thereby fitted into the hole and thereafter, the culture fluid was replaced with a measurement solution. A composition of the measurement solution was such that Ringer's solution was contained as a base, a Ca concentration was adjusted to 2 mM and an osmotic pressure was set to […].
In FIG. 13, as Comparative Example 2, there is shown results obtained by measurement of a response of an intracellular potential in an HEK cell for the same medicine in a similar way while a glass patch pipette is attached to the cell using a patch clamp method, which is a conventional method for measurement of an intracellular potential. A CCh concentration was 100 μM in a similar way. […] There is observed a noise change (from F to G in FIG. 13) due to a CCh sensitive channel response.
(In general: The patch-clamp technique gives a direct electrical read-out from membranes.)

Test [2] shares this test system. Description: Extracellular potential (voltage noise) recording of HEK cells with the instrument of Example 1. The format is cell-based, human. Conditions: HEK-293 cells; Ringer's solution replaced with Ringer's solution containing CCh 100 μM; FIG. 11 between F1 and G1. Here is the method: as §1
FIG. 11 is a graph showing a voltage noise when the above Ringer's solution was replaced with a Ringer's solution containing CCh 100 μM using Example 1. […] It was recognized that a voltage noise is increased by CCh dropping (in FIG. 11, between F1 and G1). On the other hand, in FIG. 12, there is shown results obtained by conducting a similar experiment in a convention method (Comparative Example 1). The measurement was obtained in a procedure in which a first stage amplification in the preamplifier was multiplication by a factor of 100 and thereafter further amplified by a factor of 100. LPF was set at 5 kHz. A medicine (CCh) was dropped only for a time expressed with an open square in the figure.

`C[N+](C)(C)CCOC(N)=O` [CCh, carbachol]: in test [1], the “Depolarization of intracellular potential” value is on record as “about 10 mV”. Further, the “Voltage noise change on CCh dropping” value in test [2] is “increased”.
